What is called melting point is the temperature, or range, at which the solid turns liquid.

The values below come from paper PMC6429331, “Synthesis, Molecular Docking and β-Glucuronidase Inhibitory Potential of Indole Base Oxadiazole Derivatives” (Molecules, 2019).

One series has as its target T1, β-glucuronidase (Bos taurus, UniProt A3KMY8).
T1 sequence (A3KMY8 24-652): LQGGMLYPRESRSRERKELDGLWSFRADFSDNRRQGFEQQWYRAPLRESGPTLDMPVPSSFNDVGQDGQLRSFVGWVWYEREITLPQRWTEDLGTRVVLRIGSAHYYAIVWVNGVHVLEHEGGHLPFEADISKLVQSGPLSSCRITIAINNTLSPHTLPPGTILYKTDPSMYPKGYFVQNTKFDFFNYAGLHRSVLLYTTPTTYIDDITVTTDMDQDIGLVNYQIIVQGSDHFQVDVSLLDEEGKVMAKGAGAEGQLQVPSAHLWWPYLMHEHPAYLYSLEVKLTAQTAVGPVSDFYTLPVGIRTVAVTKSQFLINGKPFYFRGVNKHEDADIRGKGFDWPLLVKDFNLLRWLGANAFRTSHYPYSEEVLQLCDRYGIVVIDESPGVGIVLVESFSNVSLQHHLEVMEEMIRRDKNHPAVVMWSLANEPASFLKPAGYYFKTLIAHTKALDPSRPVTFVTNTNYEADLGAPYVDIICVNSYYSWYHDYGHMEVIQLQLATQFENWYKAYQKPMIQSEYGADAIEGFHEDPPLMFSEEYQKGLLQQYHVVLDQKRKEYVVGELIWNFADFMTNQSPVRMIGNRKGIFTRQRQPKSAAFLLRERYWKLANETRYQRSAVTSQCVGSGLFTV
Briefly: β-Glucuronidase assay (p-nitrophenyl-β-D-glucuronide, absorbance at 405 nm). The class given is biochemical. The note with it: classified into three groups from Table 1. The procedure:
β-glucuronidase activity was determined in accordance to method used by measuring absorbance at 405 nm of p-nitrophenol formed substrate by spectrophotometric method. 250 µL was the volume of total reaction. Reaction mixture containing 5 µL of test compound solution, 185 µL of 0.1M acetate buffer, and 10 µL of enzyme solution were incubated for 30 min at 37 °C. At 405 nm the plates were recorded on multiplate reader (SpectaMax plus 384) after the addition of 50 µL of 0.4mM p-nitrophenyl-β-D-glucuronide. Experiments were performed for triplicate.

In turn, `Cc1ccc(-c2nnc(Cc3cc4ccccc4[nH]3)o2)cc1` [Compound 1, 2-((1H-indol-2-yl)methyl)-5-(p-tolyl)-1,3,4-oxadiazole] showed a melting point of 304 to 305 °C. For the same compound, on β-glucuronidase, the “activity group according to inhibitory IC50 values” is “low active group”.
On the same counts, the results for `Cc1ccccc1-c1nnc(Cc2cc3ccccc3[nH]2)o1` [Compound 2, 2-((1H-indol-2-yl)methyl)-5-(o-tolyl)-1,3,4-oxadiazole] are 300 to 301 °C and “low active group”.
Compound `Oc1ccccc1-c1nnc(Cc2cc3ccccc3[nH]2)o1` [Compound 3, 2-(5-((1H-indol-2-yl)methyl)-1,3,4-oxadiazol-2-yl) phenol] yielded a melting point of 314 to 315 °C.
As to `Oc1cccc(-c2nnc(Cc3cc4ccccc4[nH]3)o2)c1` [Compound 4, 3-(5-((1H-indol-2-yl)methyl)-1,3,4-oxadiazol-2-yl) phenol], the melting point was 311 to 312 °C. Moreover, the “activity group according to inhibitory IC50 values” on β-glucuronidase is “moderate active group”.
For `Oc1ccc(O)c(-c2nnc(Cc3cc4ccccc4[nH]3)o2)c1` [Compound 5, 2-(5-((1H-indol-2-yl)methyl)-1,3,4-oxadiazol-2-yl) benzene-1,4-diol], the “activity group according to inhibitory IC50 values” on β-glucuronidase was “moderate active group”.
Consider `Oc1cccc(-c2nnc(Cc3cc4ccccc4[nH]3)o2)c1O` [Compound 6, 3-(5-((1H-indol-2-yl)methyl)-1,3,4-oxadiazol-2-yl) benzene-1,2-diol], for which the melting point was 317 to 318 °C. The “activity group according to inhibitory IC50 values” on β-glucuronidase is on record as “Highly active group”.
The corresponding values for `Oc1ccc(-c2nnc(Cc3cc4ccccc4[nH]3)o2)cc1O` [Compound 7, 4-(5-((1H-indol-2-yl)methyl)-1,3,4-oxadiazol-2-yl) benzene-1,2-diol] are 316 to 317 °C and “Highly active group”.
On to `Oc1ccc(-c2nnc(Cc3cc4ccccc4[nH]3)o2)c(O)c1` [Compound 8, 4-(5-((1H-indol-2-yl)methyl)-1,3,4-oxadiazol-2-yl) benzene-1,3-diol], for which the melting point lay within 318 to 319 °C.
Still for that read-out and setting: to `O=[N+]([O-])c1ccccc1-c1nnc(Cc2cc3ccccc3[nH]2)o1` [Compound 10, 2-((1H-indol-2-yl)methyl)-5-(2-nitrophenyl)-1,3,4-oxadiazole] belongs 307 to 308 °C; to `O=[N+]([O-])c1cccc(-c2nnc(Cc3cc4ccccc4[nH]3)o2)c1` [Compound 11, 2-((1H-indol-2-yl)methyl)-5-(3-nitrophenyl)-1,3,4-oxadiazole], 303 to 304 °C; to `O=[N+]([O-])c1ccc(-c2nnc(Cc3cc4ccccc4[nH]3)o2)cc1` [Compound 12, 2-((1H-indol-2-yl)methyl)-5-(4-nitrophenyl)-1,3,4-oxadiazole], 309 to 310 °C.
Same read-out and setting: to `COc1ccc(O)c(-c2nnc(Cc3cc4ccccc4[nH]3)o2)c1` [Compound 13, 2-(5-((1H-indol-2-yl)methyl)-1,3,4-oxadiazol-2-yl)-4-methoxyphenol] belongs 313 to 314 °C.
Same read-out and setting: to `c1cncc(-c2nnc(Cc3cc4ccccc4[nH]3)o2)c1` [Compound 16, 2-((1H-indol-2-yl)methyl)-5-(pyridin-3-yl)-1,3,4-oxadiazole] belongs 279 to 280 °C; to `c1ccc2[nH]c(Cc3nnc(-c4ccncc4)o3)cc2c1` [Compound 17, 2-((1H-indol-2-yl)methyl)-5-(pyridin-4-yl)-1,3,4-oxadiazole], 284 to 285 °C.
`Fc1ccccc1-c1nnc(Cc2cc3ccccc3[nH]2)o1` [Compound 18, 2-((1H-indol-2-yl)methyl)-5-(2-fluorophenyl)-1,3,4-oxadiazole] yielded a melting point of 294 to 295 °C.
